Assay results reported in ChEMBL document CHEMBL3091401, “Discovery of a potent respiratory syncytial virus RNA polymerase inhibitor” (Bioorg Med Chem Lett, 2013).
Values after ≈ are worked out from the molar mass of the structure shown.

What was measured:
[1] = system: Respiratory syncytial virus; assay: Antiviral activity against Respiratory syncytial virus A2 infected in hamster BHK21 cells after 2 days by luciferase reporter gene assay; assay type: functional, organism-based; settings: human respiratory syncytial virus, A2, BHK-21, 48 h
[2] = Cytotoxicity against human Hep2 cells; assay type: cell-based, HEp-2
[3] = Aqueous solubility of the compound; assay type: physicochemical; settings: buffer
[4] = system: Respiratory syncytial virus; assay: Antiviral activity against Respiratory syncytial virus B-Washington infected in human Hep2 cells after 3 days by ELISA; assay type: functional, organism-based; settings: HEp-2, 72 h
[5] = system: Respiratory syncytial virus; assay: Antiviral activity against Respiratory syncytial virus A2 infected in human Hep2 cells after 3 days by ELISA; assay type: functional, organism-based; settings: A2, HEp-2, 72 h
[6] = Cytotoxicity against hamster BHK21 cells; assay type: cell-based, Mesocricetus auratus, BHK-21
[7] = Absorption half life in rat lungs at 10 ug/kg administered intratracheally as solution; assay type: ADME, tissue-based; settings: lung, inhaled or intranasal, 0.01 mg/kg, read-out: t1/2abs

Structure (SMILES) | EC50 [1] | solubility [3] | EC50 [4] | EC50 [5] | half-life [7] | CC50 [2] | CC50 [6]
O=C(NC1CC1)c1cn2c(n1)-c1ccccc1N(C(=O)c1ccc(NC(=O)c3cccnc3N3CCCC3)cc1)CC2 | 22 µM | 121 µM (≈ 68 µg/mL) | 50 µM | 50 µM |  |  | > 50 µM
O=C(NC1CC1)c1cc2c(s1)-c1ccccc1N(C(=O)[C@H]1CC[C@H](NC(=O)c3cccnc3N3CCCC3)CC1)CC2 | > 50 µM | 11 µM (≈ 6.42 µg/mL) |  |  |  |  | > 50 µM
CC(=O)N1CC2(CCN(c3ncccc3C(=O)Nc3ccc(C(=O)N4CCc5cc(C(=O)NC6CC6)sc5-c5ccccc54)cc3)CC2)C1 | 9 µM | 4 µM (≈ 2.7 µg/mL) | 39 µM | 5.3 µM |  | 34 µM | 
O=C(NC1CC1)c1cc2c(s1)-c1ccccc1N(C(=O)[C@H]1C[C@H](NC(=O)c3cccnc3N3CCCC3)C1)CC2 | 16 µM | 3 µM (≈ 1.67 µg/mL) |  |  |  |  | > 50 µM
CN1CC2(CCN(c3ncccc3C(=O)Nc3ccc(C(=O)N4CCc5cc(C(=O)NC6CC6)sc5-c5ccccc54)cc3)CC2)C1 | 8.5 µM | 55 µM (≈ 35.6 µg/mL) | 17 µM | 34 µM |  | 34 µM | 
O=C(NC1CC1)c1cc2c(s1)-c1ccccc1N(C(=O)c1ccc(NC(=O)c3cccnc3N3CC[S+]([O-])CC3)cc1)CC2 | 12 µM | 26 µM (≈ 16.3 µg/mL) | > 50 µM | 9.6 µM |  | > 50 µM | 
O=C(NC1CC1)c1cc2n(n1)CCN(C(=O)c1ccc(NC(=O)c3cccnc3N3CCCC3)cc1)c1ccccc1-2 | 9 µM | 32 µM (≈ 18 µg/mL) | 50 µM | 20 µM |  |  | > 50 µM
CN(C)CC1(O)CN(c2ncccc2C(=O)Nc2ccc(C(=O)N3CCc4cc(C(=O)NC5CC5)sc4-c4ccccc43)cc2)C1 | > 50 µM | > 100 µM | > 50 µM | > 50 µM |  | > 50 µM | 
O=C(NC1CC1)c1cc2c(s1)-c1ccccc1N(C(=O)c1ccc(NC(=O)c3cccnc3N3CCN(CCO)CC3)cc1)CC2 | 13 µM | 40 µM (≈ 25.5 µg/mL) | > 50 µM | 8 µM |  | > 50 µM | 
O=C(NC1CC1)c1cc2c(s1)-c1ccccc1N(C(=O)c1ccc(NC(=O)c3cccnc3N3CCCC3)cn1)CC2 | 3.7 µM | 3 µM (≈ 1.74 µg/mL) | > 50 µM | 2.4 µM |  |  | > 50 µM
O=C(NC1CC1)c1cc2c(s1)-c1cccnc1N(C(=O)c1ccc(NC(=O)c3cccnc3N3CCCC3)cc1)CC2 | 8.6 µM | 10 µM (≈ 5.79 µg/mL) | > 50 µM | 7.8 µM |  |  | > 50 µM
O=C(NC1CC1)c1cc2c(s1)-c1ccccc1N(C(=O)N1CCC(NC(=O)c3cccnc3N3CCCC3)CC1)CC2 | 14 µM | 26 µM (≈ 15.2 µg/mL) |  |  |  |  | > 50 µM
O=C(NC1CC1)c1cc2c(s1)-c1ccccc1N(C(=O)[C@H]1C[C@@H](NC(=O)c3cccnc3N3CCCC3)C1)CC2 | > 50 µM | 2 µM (≈ 1.11 µg/mL) |  |  |  |  | > 50 µM
O=C(NC1CC1)c1cc2c(s1)-c1ccccc1N(C(=O)c1ccc(NC(=O)c3cccnc3N3CCCC3)nc1)CC2 | > 50 µM | 3 µM (≈ 1.74 µg/mL) | > 50 µM | > 50 µM |  |  | > 50 µM

Second part, led by results:

EC50 [1] | solubility [3] | EC50 [4] | EC50 [5] | half-life [7] | Structure (SMILES) | CC50 [2] | CC50 [6]
0.04 µM | < 1 µM | 2.2 µM | 0.03 µM |  | O=C(NC1CC1)c1cc2c(s1)-c1ccccc1N(C(=O)c1ccc(NC(=O)c3cccnc3N3CCC4(CCOCC4)CC3)cc1)CC2 | > 50 µM | 
2.2 µM | 1 µM (≈ 0.579 µg/mL) | > 50 µM | 1.1 µM |  | O=C(NC1CC1)c1cc2c(s1)-c1cnccc1N(C(=O)c1ccc(NC(=O)c3cccnc3N3CCCC3)cc1)CC2 |  | > 50 µM
0.02 µM | < 1 µM | 1.8 µM | < 0.21 µM |  | COc1ccc(C(=O)Nc2ccc(C(=O)N3CCc4cc(C(=O)NC5CC5)sc4-c4ccccc43)cc2)c(N2CCC3(CC2)COC3)n1 | > 50 µM | 
0.31 µM | < 1 µM | > 50 µM | 0.15 µM |  | O=C(NC1CC1)c1cc2c(s1)-c1ccccc1N(C(=O)c1ccc(NC(=O)c3cccnc3N3CCCC3)cc1)CC2 | > 50 µM | > 50 µM
0.57 µM | 9 µM (≈ 5.7 µg/mL) | 14 µM | 0.68 µM |  | O=C(NC1CC1)c1cc2c(s1)-c1ccccc1N(C(=O)c1ccc(NC(=O)c3cnccc3N3CCC4(CC3)COC4)cc1)CC2 | 34 µM | 
3.6 µM | 4 µM (≈ 2.57 µg/mL) | > 50 µM | 2.2 µM |  | O=C(NC1CC1)c1cc2c(s1)-c1ccccc1N(C(=O)c1ccc(NC(=O)c3cccnc3N3CCS(=O)(=O)CC3)cc1)CC2 | > 50 µM | 
0.16 µM | < 1 µM | 5.1 µM | < 0.21 µM |  | O=C(NC1CC1)c1cc2c(s1)-c1ccccc1N(C(=O)c1ccc(NC(=O)c3ccncc3N3CCC4(CC3)COC4)cc1)CC2 | 4.8 µM | 
0.01 µM | 2 µM (≈ 1.27 µg/mL) | 1 µM | 0.01 µM | < 1 min | O=C(NC1CC1)c1cc2c(s1)-c1ccccc1N(C(=O)c1ccc(NC(=O)c3cccnc3N3CCC4(CC3)COC4)cc1)CC2 | > 50 µM | 
< 0.007 µM | < 1 µM | 0.5 µM | 0.01 µM |  | O=C(NC1CC1)c1cc2c(s1)-c1ccccc1N(C(=O)c1ccc(NC(=O)c3cccnc3N3CC4(CCOCC4)C3)cc1)CC2 | > 50 µM | 
0.63 µM | 36 µM (≈ 21.4 µg/mL) | 17 µM | 0.23 µM |  | O=C(NC1CC1)c1cc2c(s1)-c1ccccc1N(C(=O)c1ccc(NC(=O)c3cccnc3N3CCOCC3)cc1)CC2 | > 50 µM | 
0.19 µM | < 1 µM | > 50 µM | < 0.21 µM |  | O=C(NC1CC1)c1cc2c(s1)-c1ccccc1N(C(=O)c1ccc(NC(=O)c3ccccc3N3CCC4(CC3)COC4)cc1)CC2 | > 50 µM | 
0.35 µM | < 1 µM | 49 µM | 0.47 µM |  | O=C(NC1CC1)c1cc2c(s1)-c1ccccc1N(C(=O)c1ccc(NC(=O)c3ncccc3N3CCC4(CC3)COC4)cc1)CC2 | 43 µM | 
